Assay [1] relates to Beet Armyworm (Spodoptera exigua). Kind of assay: Bioassay on Beet Armyworm (BAW), 128-well diet tray assay. Conditions: for pest or weed control at 50 µg/cm2: Beet Armyworm, Table ABC, read-out: BAW rating; for mortality at 0.05 µg/cm2 / mortality at 0.5 µg/cm2 / mortality at 5 µg/cm2: 168 h, second instar larvae, five to seven days, read-out: BAW Percent control (or mortality); for mortality at 0.05 µg/cm2: 0.05 μg/cm^2 on artificial diet; for mortality at 0.5 µg/cm2: 0.5 μg/cm^2 on artificial diet; for mortality at 5 µg/cm2: 5 μg/cm^2 on artificial diet. It counts as in vivo. The procedure:
(§1) Example A: Bioassays on Beet Armyworm (Spodoptera Exigua, LAPHEG) (“BAW”), Corn Earworm (Helicoverpa Zea, HELIZE) (“CEW”), and Cabbage Looper (Trichoplusia Ni, TRIPNI) (“CL”)
(§2) Certain molecules disclosed in this document were tested against BAW, CEW, and CL using procedures described in the following examples. In the reporting of the results, the “BAW, CEW, & CL Rating Table” was used (See Table Section).
Bioassays on BAW were conducted using a 128-well diet tray assay. One to five second instar BAW larvae were placed in each well (3 mL) of the diet tray that had been previously filled with 1 mL of artificial diet to which 50 μg/cm^2 of the test molecule (dissolved in 50 μL of 90:10 acetone-water mixture) had been applied (to each of eight wells) and then allowed to dry. Trays were covered with a clear self-adhesive cover and held at 25° C., 14:10 light-dark for five to seven days. Percent mortality was recorded for the larvae in each well; activity in the eight wells was then averaged. The results are indicated in the table entitled “Table ABC: Biological Results” (See Table Section).
(§3) Bioassays on BAW and CL were conducted according to the procedures outlined in Example A: Bioassays on Beet Armyworm (“BAW”) and Cabbage Looper (“CL”) using the indicated concentrations.

The subject of assay [2] is Cabbage Looper (Trichoplusia ni). Kind of assay: Bioassay on Cabbage Looper (CL), 128-well diet tray assay. Type of assay: in vivo. Conditions: for pest or weed control at 50 µg/cm2: Cabbage Looper, Table ABC, read-out: CL rating; for mortality at 0.05 µg/cm2 / mortality at 0.5 µg/cm2 / mortality at 5 µg/cm2: 168 h, second instar larvae, five to seven days, read-out: CL Percent control (or mortality); for mortality at 0.05 µg/cm2: 0.05 μg/cm^2 on artificial diet; for mortality at 0.5 µg/cm2: 0.5 μg/cm^2 on artificial diet; for mortality at 5 µg/cm2: 5 μg/cm^2 on artificial diet. The procedure: as §1, §2
Bioassays on CL were conducted using a 128-well diet tray assay. One to five second instar CL larvae were placed in each well (3 mL) of the diet tray that had been previously filled with 1 mL of artificial diet to which 50 μg/cm^2 of the test molecule (dissolved in 50 μL of 90:10 acetone-water mixture) had been applied (to each of eight wells) and then allowed to dry. Trays were covered with a clear self-adhesive cover and held at 25° C., 14:10 light-dark for five to seven days. Percent mortality was recorded for the larvae in each well; activity in the eight wells was then averaged. The results are indicated in the table entitled “Table ABC: Biological Results” (See Table Section).
as §3

Take `C=CCNC(=O)C1(NC(=O)c2ccc(/C(F)=C/C(c3cc(Cl)c(Cl)c(Cl)c3)C(F)(F)F)cc2C)CC1` (centres unmarked) [F9, (Z)—N-(1-(Allylcarbamoyl)cyclopropyl)-2-methyl-4-(1,4,4,4-tetrafluoro-3-(3,4,5-trichlorophenyl)but-1-en-1-yl)benzamide]: the pest or weed control at 50 µg/cm2 in assay [1] and in assay [2] was 50 to 100% throughout.

In the case of `Cc1cc(/C(F)=C/C(c2cc(Cl)c(Cl)c(Cl)c2)C(F)(F)F)ccc1C(=O)NC1(C(=O)NCCC2CC2)CC1` (centres unmarked) [F10, (Z)—N-(1-((2-Cyclopropylethyl)carbamoyl)cyclopropyl)-2-methyl-4-(1,4,4,4-tetrafluoro-3-(3,4,5-trichlorophenyl)but-1-en-1-yl)benzamide], the pest or weed control at 50 µg/cm2 in assay [1] and in assay [2] was 50 to 100% in each case.

Turning to `C=CCNC(=O)[C@@H](C)NC(=O)c1ccc(/C(F)=C/C(c2cc(Cl)c(Cl)c(Cl)c2)C(F)(F)F)cc1C(F)(F)F` (stereo partly drawn) [F11, N—((R)-1-(Allylamino)-1-oxopropan-2-yl)-4-((Z)-1,4,4,4-tetrafluoro-3-(3,4,5-trichlorophenyl)but-1-en-1-yl)-2-(trifluoromethyl)benzamide], the pest or weed control at 50 µg/cm2 in assay [1] and in assay [2] was 50 to 100% in each case.

Regarding `C[C@@H](NC(=O)c1ccc(/C(F)=C/C(c2cc(Cl)c(Cl)c(Cl)c2)C(F)(F)F)cc1C(F)(F)F)C(=O)NCCC1CC1` (stereo partly drawn) [F12, N—((R)-1-((2-Cyclopropylethyl)amino)-1-oxopropan-2-yl)-4-((Z)-1,4,4,4-tetrafluoro-3-(3,4,5-trichlorophenyl)but-1-en-1-yl)-2-(trifluoromethyl)benzamide], the pest or weed control at 50 µg/cm2 in assay [1] and in assay [2] was 50 to 100% each time.

As for `C[C@@H](NC(=O)c1ccc(/C(F)=C/C(c2cc(Cl)c(Cl)c(Cl)c2)C(F)(F)F)cc1C(F)(F)F)C(=O)N(C)CC(F)(F)F` (stereo partly drawn) [F13, N—((R)-1-(Methyl(2,2,2-trifluoroethyl)amino)-1-oxopropan-2-yl)-4-((Z)-1,4,4,4-tetrafluoro-3-(3,4,5-trichlorophenyl)but-1-en-1-yl)-2-(trifluoromethyl)benzamide], the pest or weed control at 50 µg/cm2 in assay [1] and in assay [2] was 50 to 100% in each case.

As to `C=CCNC(=O)[C@@H](C)NC(=O)c1ccc(/C(F)=C/C(c2cc(Cl)c(Cl)c(Cl)c2)C(F)(F)F)cc1C` (stereo partly drawn) [F14, N—((R)-1-(Allylamino)-1-oxopropan-2-yl)-2-methyl-4-((Z)-1,4,4,4-tetrafluoro-3-(3,4,5-trichlorophenyl)but-1-en-1-yl)benzamide], the pest or weed control at 50 µg/cm2 in assay [1] and in assay [2] was 50 to 100% in each case.

Take `Cc1cc(/C(F)=C/C(c2cc(Cl)c(Cl)c(Cl)c2)C(F)(F)F)ccc1C(=O)N[C@H](C)C(=O)NCCC1CC1` (stereo partly drawn) [F15, N—((R)-1-((2-Cyclopropylethyl)amino)-1-oxopropan-2-yl)-2-methyl-4-((Z)-1,4,4,4-tetrafluoro-3-(3,4,5-trichlorophenyl)but-1-en-1-yl)benzamide]: the pest or weed control at 50 µg/cm2 in assay [1] and in assay [2] was 50 to 100% in each case.

Turning to `CCCCNC(=O)[C@@H](C)NC(=O)c1ccc(/C(F)=C/C(c2cc(Cl)c(Cl)c(Cl)c2)C(F)(F)F)cc1C(F)(F)F` (stereo partly drawn) [F16, N—((R)-1-(Butylamino)-1-oxopropan-2-yl)-4-((Z)-1,4,4,4-tetrafluoro-3-(3,4,5-trichlorophenyl)but-1-en-1-yl)-2-(trifluoromethyl)benzamide], the pest or weed control at 50 µg/cm2 in assay [1] and in assay [2] was 50 to 100% each time.

As to `C[C@@H](NC(=O)c1ccc(/C(F)=C\C(c2cc(Cl)c(Cl)c(Cl)c2)C(F)(F)F)cc1C(F)(F)F)C(=O)NCC(F)(F)F` (stereo partly drawn) [F17, N—((R)-1-oxo-1-((2,2,2-trifluoroethyl)amino)propan-2-yl)-4-((E)-1,4,4,4-tetrafluoro-3-(3,4,5-trichlorophenyl)but-1-en-1-yl)-2-(trifluoromethyl)benzamide], the pest or weed control at 50 µg/cm2 in assay [1] and in assay [2] was 50 to 100% each time.

Consider `C[C@@H](NC(=O)c1ccc(/C(F)=C/C(c2cc(Cl)c(Cl)c(Cl)c2)C(F)(F)F)cc1Br)C(=O)NCC(F)(F)F` (stereo partly drawn) [F18, 2-Bromo-N—((R)-1-oxo-1-((2,2,2-trifluoroethyl)amino)propan-2-yl)-4-((Z)-1,4,4,4-tetrafluoro-3-(3,4,5-trichlorophenyl)but-1-en-1-yl)benzamide], for which, in assay [1], the mortality at 0.05 µg/cm2 is 100%, the mortality at 0.5 µg/cm2 was 100%, the mortality at 5 µg/cm2 turned out to be 100% and the pest or weed control at 50 µg/cm2 was in the range of 50 to 100%. In assay [2], the mortality at 0.05 µg/cm2 came to 100%, the mortality at 0.5 µg/cm2 was determined as 100%, the mortality at 5 µg/cm2 stood at 100% and the pest or weed control at 50 µg/cm2 was in the range of 50 to 100%.

For the compound `O=C(CNC(=O)c1ccc(/C(F)=C/C(c2cc(Cl)c(Cl)c(Cl)c2)C(F)(F)F)cc1Br)NCC(F)(F)F` (centres unmarked) [F19, (Z)-2-Bromo-N-(2-oxo-2-((2,2,2-trifluoroethyl)amino)ethyl)-4-(1,4,4,4-tetrafluoro-3-(3,4,5-trichlorophenyl)but-1-en-1-yl)benzamide], in assay [1], the mortality at 0.05 µg/cm2 amounted to 100%, the mortality at 0.5 µg/cm2 was 100%, the mortality at 5 µg/cm2 stood at 100% and the pest or weed control at 50 µg/cm2 was in the range of 50 to 100%. For the same compound, in assay [2], the mortality at 0.05 µg/cm2 was found to be 100%, the mortality at 0.5 µg/cm2 stood at 100%, the mortality at 5 µg/cm2 was determined as 100% and the pest or weed control at 50 µg/cm2 lay within 50 to 100%.

As for `CCN(CC(F)(F)F)C(=O)[C@@H](C)NC(=O)c1ccc(/C(F)=C/C(c2cc(Cl)c(Cl)c(Cl)c2)C(F)(F)F)cc1C(F)(F)F` (stereo partly drawn) [F20, N—((R)-1-(Ethyl(2,2,2-trifluoroethyl)amino)-1-oxopropan-2-yl)-4-((Z)-1,4,4,4-tetrafluoro-3-(3,4,5-trichlorophenyl)but-1-en-1-yl)-2-(trifluoromethyl)benzamide], the pest or weed control at 50 µg/cm2 in assay [1] and in assay [2] was 50 to 100% in each case.

For the compound `O=C(NC1(C(=O)NCC(F)(F)F)CC1)c1ccc(/C(F)=C/C(c2cc(Cl)c(Cl)c(Cl)c2)C(F)(F)F)cc1Br` (centres unmarked) [F21, (Z)-2-Bromo-4-(1,4,4,4-tetrafluoro-3-(3,4,5-trichlorophenyl)but-1-en-1-yl)-N-(1-((2,2,2-trifluoroethyl)carbamoyl)cyclopropyl)benzamide], the pest or weed control at 50 µg/cm2 in assay [1] and in assay [2] was 50 to 100% throughout.

As for `O=C(CNC(=O)c1ccc(/C(F)=C/C(c2cc(Cl)c(Cl)c(Cl)c2)C(F)(F)F)cc1Cl)NCC(F)(F)F` (centres unmarked) [F22, (Z)-2-Chloro-N-(2-oxo-2-((2,2,2-trifluoroethyl)amino)ethyl)-4-(1,4,4,4-tetrafluoro-3-(3,4,5-trichlorophenyl)but-1-en-1-yl)benzamide], in assay [1], the mortality at 0.05 µg/cm2 came to 100%, the mortality at 0.5 µg/cm2 was found to be 100%, the mortality at 5 µg/cm2 came out at 100% and the pest or weed control at 50 µg/cm2 is 50 to 100%. In assay [2], the mortality at 0.05 µg/cm2 came out at 100%, the mortality at 0.5 µg/cm2 turned out to be 100%, the mortality at 5 µg/cm2 is 100% and the pest or weed control at 50 µg/cm2 lay in the range of 50 to 100%.

With `C[C@@H](NC(=O)c1ccc(/C(F)=C/C(c2cc(Cl)c(Cl)c(Cl)c2)C(F)(F)F)cc1Cl)C(=O)NCC(F)(F)F` (stereo partly drawn) [F23, 2-Chloro-N—((R)-1-oxo-1-((2,2,2-trifluoroethyl)amino)propan-2-yl)-4-((Z)-1,4,4,4-tetrafluoro-3-(3,4,5-trichlorophenyl)but-1-en-1-yl)benzamide], in assay [1], the mortality at 0.05 µg/cm2 was found to be 81%, the mortality at 0.5 µg/cm2 was found to be 100%, the mortality at 5 µg/cm2 stood at 100% and the pest or weed control at 50 µg/cm2 fell in the range of 50 to 100%. Moreover, in assay [2], the mortality at 0.05 µg/cm2 is 100%, the mortality at 0.5 µg/cm2 came to 100%, the mortality at 5 µg/cm2 was determined as 100% and the pest or weed control at 50 µg/cm2 lay within 50 to 100%.

Consider `CON(CC(F)(F)F)C(=O)[C@@H](C)NC(=O)c1ccc(/C(F)=C/C(c2cc(Cl)c(Cl)c(Cl)c2)C(F)(F)F)cc1C(F)(F)F` (stereo partly drawn) [F24, N—((R)-1-(Methoxy(2,2,2-trifluoroethyl)amino)-1-oxopropan-2-yl)-4-((Z)-1,4,4,4-tetrafluoro-3-(3,4,5-trichlorophenyl)but-1-en-1-yl)-2-(trifluoromethyl)benzamide], for which the pest or weed control at 50 µg/cm2 in assay [1] and in assay [2] was 50 to 100% in each case.

The mortality is the percentage killed.

(Values after US10251394B2, “Molecules having pesticidal utility, and intermediates, compositions, and processes, related thereto” (Dow AgroSciences LLC, priority 2016, dated 2019).)
